Biological target: PrP^res (Homo sapiens, UniProt P04156)
Format: cell-based

## COC[C@H]1O[C@@H]2O[C@H]3[C@H](O)[C@@H](OC)[C@@H](O[C@H]4[C@H](O)[C@@H](OC)[C@@H](O[C@H]5[C@H](O)[C@@H](OC)[C@@H](O[C@H]6[C@H](O)[C@@H](OC)[C@@H](O[C@H]7[C@H](O)[C@@H](OC)[C@@H](O[C@H]8[C@H](O)[C@@H](OC)[C@@H](O[C@H]1[C@H](O)[C@H]2OC)O[C@@H]8COC)O[C@@H]7COC)O[C@@H]6COC)O[C@@H]5COC)O[C@@H]4COC)O[C@@H]3COC [DIMEB, heptakis(2,6-O-dimethyl)beta-cyclodextrin]
  PrP^Sc accumulation: significantly decreased
